Patent US9271978B2 (Zenith Epigenetics Corp., priority 2012, dated 2016)

Columns and labels:
IL-6 and IL-17 cytokines = assay: In vivo efficacy in mouse endotoxemia model; conditions: C57/B16 mice, oral 75 mg/kg, inhibition in IL-6 and IL-17 post 4-h LPS challenge 0.5 mg/kg i.p.
Method: Sub lethal doses of Endotoxin (E. Coli bacterial lipopolysaccharide) were administered to animals to produce a generalized inflammatory response which was monitored by increases in secreted cytokines. Compounds were administered to C57/B16 mice orally at 75 mg/kg dose to evaluate inhibition in IL-6 and IL-17 cytokines post 4-h challenge with lipopolysaccharide (LPS) at 0.5 mg/kg dose intraperitoneally.

[1] = system: Rat collagen-induced arthritis; assay: In vivo efficacy in rat collagen-induced arthritis; conditions: female Lewis rats, dosed Day 11 to Day 17
Method: Rat collagen-induced arthritis is an experimental model of polyarthritis that has been widely used for preclinical testing of numerous anti-arthritic agents. Following administration of collagen, this model establishes a measurable polyarticular inflammation, marked cartilage destruction in association with pannus formation and mild to moderate bone resorption and periosteal bone proliferation. In this model, collagen was administered to female Lewis strain of rats on Day 1 and 7 of study and dosed with compounds from Day 11 to Day 17. Test compounds were evaluated to assess the potential to inhibit the inflammation (including paw swelling), cartilage destruction and bone resorption in arthritic rats, using a model in which the treatment is administered after the disease has been established.

SMILES	In vivo activity (IL-6 and IL-17 cytokines)	In vivo activity [1]
Cc1noc(C)c1-c1ccc(=O)n(Cc2ccccc2)c1 [Example 56, 1-Benzyl-5-(3,5-dimethylisoxazol-4-yl)pyridin-2(1H)-one]	Active	
Cc1noc(C)c1-c1ccc(=O)n(Cc2ccc(Cl)cc2)c1 [Example 128, 1-(4-Chlorobenzyl)-5-(3,5-dimethylisoxazol-4-yl)pyridin-2(1H)-one]	Active	Active
